Test results as given in PMC7385556 (ACS chemical biology, 2020).
Marks after values point to notes of the source that are not given here.

System: Mtb K204
Assay type: cell-based, Mycobacterium tuberculosis
Conditions: KAN alone, no inhibitor

NC[C@H]1O[C@H](O[C@H]2[C@H](O)[C@@H](O[C@H]3O[C@H](CO)[C@@H](O)[C@H](N)[C@H]3O)[C@H](N)C[C@@H]2N)[C@H](O)[C@@H](O)[C@@H]1O [KAN, kanamycin]
MICKAN in K204: >10, >10^d μg/mL
